# In patent US10899709B2, “Novel-alkynyl-substituted 3-phenylpyrrolidine-2,4-diones and use thereof as herbicides” (BAYER CROPSCIENCE AKTIENGESELLSCHAFT, priority 2015, dated 2021):
# Experiments:
# Assay type in all cases: in vivo
# [1] = tested on: Alopecurus myosuroides; assay: Pre-emergence herbicidal effect; settings: visual score after 3 weeks
# Description: (§1) Seeds of monocotyledonous and dicotyledonous weed plants and crop plants are laid out in wood-fibre pots in sandy loam and covered with soil. The compounds according to the invention formulated in the form of wettable powders (WP) or as emulsion concentrates (EC) are then applied as aqueous suspension or emulsion at a water application rate of 600 to 800 l/ha (converted) with the addition of 0.2% wetting agent to the surface of the covering soil. After the treatment, the pots are placed in a greenhouse and kept under good growth conditions for the trial plants. The damage to the test plants is scored visually after a test period of 3 weeks by comparison with untreated controls (herbicidal activity in percent (%): 100% activity=the plants have died, 0% activity=like control plants).
# [2] = tested on: Avena fatua; assay: Pre-emergence herbicidal effect; settings: for Pre-emergence effectiveness AVEFA: visual score after 3 weeks
# Description: as §1
# [3] = tested on: Echinochloa crus-galli; assay: Pre-emergence herbicidal effect; settings: visual score after 3 weeks
# Description: as §1
# [4] = tested on: Lolium multiflorum; assay: Pre-emergence herbicidal effect; settings: visual score after 3 weeks
# Description: as §1
# [5] = tested on: Setaria viridis; assay: Pre-emergence herbicidal effect; settings: for Pre-emergence effectiveness SETVI: visual score after 3 weeks
# Description: as §1
# [6] = tested on: Alopecurus myosuroides; assay: Post-emergence herbicidal effect; settings: visual assessment after about 3 weeks
# Description: (§2) Seeds of monocotyledonous and dicotyledonous weed and crop plants are laid out in sandy loam in wood-fibre pots, covered with soil and cultivated in a greenhouse under good growth conditions. 2 to 3 weeks after sowing, the test plants are treated at the one-leaf stage. The compounds according to the invention, formulated in the form of wettable powders (WP) or as emulsion concentrates (EC), are then sprayed as aqueous suspension or emulsion at a water application rate of 600 to 800 l/ha (converted) with the addition of 0.2% of wetting agent onto the green parts of the plants. After the test plants have been left to stand in the greenhouse under optimal growth conditions for about 3 weeks, the action of the preparations is assessed visually in comparison to untreated controls (herbicidal action in percent (%): 100% activity=the plants have died, 0% activity=like control plants).
# [7] = tested on: Avena fatua; assay: Post-emergence herbicidal effect; settings: visual assessment after about 3 weeks
# Description: as §2
# [8] = tested on: Echinochloa crus-galli; assay: Post-emergence herbicidal effect; settings: visual assessment after about 3 weeks
# Description: as §2
# [9] = tested on: Lolium multiflorum; assay: Post-emergence herbicidal effect; settings: visual assessment after about 3 weeks
# Description: as §2
# [10] = tested on: Setaria viridis; assay: Post-emergence herbicidal effect; settings: visual assessment after about 3 weeks
# Description: as §2
# [11] = tested on: Cyperus esculentus; assay: Pre-emergence herbicidal effect; settings: for Pre-emergence effectiveness CYPES: 320 g/ha, visual score after 3 weeks
# Description: as §1
SMILES,Pre-emergence effectiveness ALOMY ([1]; 80 g/ha) [%],Pre-emergence effectiveness ALOMY ([1]; 320 g/ha) [%],Pre-emergence effectiveness AVEFA ([2]; 80 g/ha) [%],Pre-emergence effectiveness AVEFA ([2]; 320 g/ha) [%],Pre-emergence effectiveness ECHCG ([3]; 80 g/ha) [%],Pre-emergence effectiveness ECHCG ([3]; 320 g/ha) [%],Pre-emergence effectiveness LOLMU ([4]; 80 g/ha) [%],Pre-emergence effectiveness LOLMU ([4]; 320 g/ha) [%],Pre-emergence effectiveness SETVI ([5]; 80 g/ha) [%],Pre-emergence effectiveness SETVI ([5]; 320 g/ha) [%],Post-emergence effectiveness ALOMY ([6]; 20 g/ha) [%],Post-emergence effectiveness ALOMY ([6]; 80 g/ha) [%],Post-emergence effectiveness AVEFA ([7]; 20 g/ha) [%],Post-emergence effectiveness AVEFA ([7]; 80 g/ha) [%],Post-emergence effectiveness ECHCG ([8]; 20 g/ha) [%],Post-emergence effectiveness ECHCG ([8]; 80 g/ha) [%],Post-emergence effectiveness LOLMU ([9]; 20 g/ha) [%],Post-emergence effectiveness LOLMU ([9]; 80 g/ha) [%],Post-emergence effectiveness SETVI ([10]; 20 g/ha) [%],Post-emergence effectiveness SETVI ([10]; 80 g/ha) [%],also measured
CC#Cc1cc(C)c(C2=C(O)C3(CCC(COC)C3)NC2=O)c(CC)c1 (centres unmarked) [Example I-10],90,100,80,100,100,100,100,100,80,100,100,100,100,100,100,100,100,100,90,100,
CCc1cc(C#CC2CC2)cc(C)c1C1=C(OC(=O)C(C)C)C2(CCC(COC)C2)NC1=O (mixture of isomers) [Example Ia-10],90,100,,,100,100,80,100,90,100,,80,,,90,90,80,90,100,100,Pre-emergence effectiveness CYPES [11]: 80%
CC#Cc1cc(C)c(C2=C(OC(=O)C(C)C)C3(CCC(COC)C3)NC2=O)c(CC)c1 (centres unmarked) [Example Ia-8],100,100,90,90,100,100,100,100,80,100,100,100,,100,100,100,100,100,100,100,
CC#Cc1cc(C)c(C2=C(OC(=O)OCC)C3(CCC(COC)CC3)NC2=O)c(CC)c1 (centres unmarked) [Ia-17],,,,,,,,,,,,,,,,,,,,,Comparison data for pre-emergence effectiveness AVEFA ([2]; 20 g a.i./ha): 60%; Comparison data for pre-emergence effectiveness CYPES ([11]; 20 g a.i./ha): 100%; Comparison data for pre-emergence effectiveness SETVI ([5]; 20 g a.i./ha): 100%
CCc1cc(C#CC2CC2)cc(C)c1C1=C(O)C2(CCC(COC)C2)NC1=O (centres unmarked) [Example I-12],,100,100,80,90,100,100,100,90,100,,90,80,80,100,100,,90,100,100,
CC#Cc1cc(C)c(C2=C(OC(=O)OCC)C3(CCC(OCCOC)CC3)NC2=O)c(CC)c1 (centres unmarked) [Ia-14],80,100,80,80,100,100,90,100,100,100,,,,,,,,,,,Pre-emergence effectiveness CYPES [11]: 100%
